Results as given in US20140370177A1, “COMPOSITIONS” (Givaudan S.A., priority 2011, published 2014).

How the values were obtained:
Format in all cases: in vivo, human
experienced tasters = assay: Comparison of upfront sweetness on top of 5% sucrose solution, 5 experienced tasters
Experimental: Two mixtures, stevioside/rebaudioside A (3:1) and (2:1) were evaluated for their upfront sweetness in comparison with pure stevioside and rebaudioside A. Sensory evaluation was carried out with 5 experienced tasters. 30 ppm of stevioside/rebaudioside A (3:1), (2:1), and Rebaudioside A on top of 5% sucrose solution were prepared along with 20, 35, 45, 75 ppm stevioside in 5% sucrose solutions. Samples were prepared fresh and at room temperature and were paired and tasted with water rinsing in-between.

[1] = test system: sweet sensitive panelists; assay: Iso-intensity in 5% sucrose solution (sweetness enhancement), formal sensory panel (R-index)
Experimental: (§1) The sensory evaluation was conducted using a ranking method. Samples at ambient temperature were randomly presented in 20 ml blind aliquots (unidentifiable by panelists). Panels consisted of 20 sweet sensitive subjects and samples were presented in 2 replications over 1 session. After tasting each sample, the mouth was rinsed thoroughly with water at ambient temperature prior to tasting the next sample. Panelists were presented with 0.5%, 1.0%, and 1.5% sucrose solutions in water and two samples of stevioside/rebaudioside A at 30 and 45 ppm in water, respectively. Subjects were asked to rank the samples from low to high with respect to perceived sweet taste. R-indices were calculated for 30 and 45 ppm stevioside/rebaudioside A samples versus either 0.5%, 1.0% or 1.5% sucrose.
The sensory evaluation was conducted using the same method as described in Example 4. Panels consisted of 20 sweet sensitive subjects and samples were presented in 2 replications over 1 session. Panelists were presented with 20 mL of 5.5%, 6.0%, 6.5%, 7.0%, 8.0% sucrose solutions and one sample of 35 ppm stevioside/rebaudioside A in 5.0% sucrose, respectively. Subjects were asked to rank the samples from low to high with respect to perceived sweet taste. R-indices were calculated for 35 ppm stevioside/rebaudioside A in 5.0% sucrose sample versus either 6.0%, 6.5%, 7.0% or 8.0% sucrose.
The objective of this test was to determine the extent to which stevioside enhances sweetness perception of a 5% sucrose solution.
This example examined the effect of 30 ppm rebaudioside A on top of 5% sucrose.

[2] = test system: sweet sensitive panelists; assay: Ranking test in water, sucrose iso-intensity, formal sensory panel (R-index); conditions: for More Sweet Sample / R-index: in water
Experimental: as §1
The sensory evaluation was conducted using the same method as described in Example 4. Panels consisted of 20 sweet sensitive subjects and samples were presented in 2 replications over 1 session. Panelists were presented with 20 mL of 0.5%, 1.0%, and 1.5% sucrose solutions in water and two samples of stevioside/rebaudioside A (3:1) at 35 and 40 ppm in water, respectively. Subjects were asked to rank the samples from low to high with respect to perceived sweet taste. R-indices were calculated for 35 and 40 ppm stevioside/rebaudioside A samples versus either 0.5%, 1.0% or 1.5% sucrose.
Two ounces of each sample was presented in random order to 20 sweet sensitive panelists. In two replications (over 1 session), Panelists were asked to rank the samples from least sweet to most sweet. The data were subjected to an R-index analysis.

[3] = 5% sucrose + 35 ppm Stevioside vs. 5.0% sucrose
[4] = 5% sucrose + 35 ppm Stevioside vs. 6.0% sucrose
[5] = 5% sucrose + 35 ppm Stevioside vs. 7.0% sucrose
[6] = 30 ppm Stevioside vs. 0.5% sucrose
[7] = 30 ppm Stevioside vs. 1.0% sucrose
[8] = 30 ppm Stevioside vs. 1.5% sucrose
[9] = 30 ppm Stevioside vs. 40 ppm Stevioside
[10] = 40 ppm Stevioside vs. 0.5% sucrose
[11] = 40 ppm Stevioside vs. 1.0% sucrose
[12] = 40 ppm Stevioside vs. 1.5% sucrose
[13] = 5% sucrose + 30 ppm RebA vs. 5% sucrose
[14] = 5% sucrose + 30 ppm RebA vs. 6% sucrose
[15] = 5% sucrose + 30 ppm RebA vs. 7% sucrose

For `C=C1C[C@@]23CC[C@H]4[C@@](C)(CCC[C@@]4(C)C(=O)O[C@@H]4O[C@H](CO)[C@@H](O)[C@H](O)[C@H]4O)[C@@H]2CC[C@]1(O[C@@H]1O[C@H](CO)[C@@H](O)[C@H](O)[C@H]1O[C@@H]1O[C@H](CO)[C@@H](O)[C@H](O)[C@H]1O)C3` [Stevioside, stevioside], the “Description of upfront sweetness” value (experienced tasters; 20, 35, 45, 75 ppm in 5% sucrose solutions) was “delayed onset and lack of the upfront sweetness”, the Ranking of sweetness (experienced tasters; 75 ppm in 5% sucrose solution) was “ranked as the sweetest but not the most upfront one” and the “More Sweet Sample” value [1, 3] was 5% sucrose +. The R-index [1, 3] was 8.281, the “More Sweet Sample” value [1, 4] was 5% sucrose + and the R-index [1, 4] was 21.094. For the same molecule, the “More Sweet Sample” value [1, 5] was 7.0% sucrose, the R-index [1, 5] was 78.125 and the “Iso-sweet sucrose concentration by interpolation” value ([1]; 35 ppm in 5% sucrose) was 6.5 % sucrose. For the same molecule, the “Additional sucrose equivalence (sweetness enhancing effect)” value ([1]; 35 ppm on top of 5% sucrose) was 0.5 % sucrose equivalence, the “More Sweet Sample” value [2, 6] was 30 ppm and the R-index [2, 6] was 25.625. For the same molecule, the “More Sweet Sample” value [2, 7] was 1.0% sucrose, the R-index [2, 7] was 66.938 and the “More Sweet Sample” value [2, 8] was 1.5% sucrose. For the same molecule, the R-index [2, 8] was 94.750, the “More Sweet Sample” value [2, 9] was 40 ppm and the R-index [2, 9] was 80.188. For the same molecule, the “Sucrose equivalence of sweetness by interpolation” value ([2]; 30 ppm in water) was 0.75 % sucrose, the “Isosweet sucrose concentration determined from 30 and 40 ppm data” value ([2]; 35 ppm in water) was 1.0 % sucrose and the “More Sweet Sample” value [2, 10] was 40 ppm. For the same molecule, the R-index [2, 10] was 11.375, the “More Sweet Sample” value [2, 11] was 40 ppm and the R-index [2, 11] was 29.094. For the same molecule, the “More Sweet Sample” value [2, 12] was 1.5% sucrose, the R-index [2, 12] was 82.219 and the “Sucrose equivalence of sweetness by interpolation” value ([2]; 40 ppm in water) was 1.25 % sucrose.
Molecule `C=C1C[C@@]23CC[C@H]4[C@@](C)(CCC[C@@]4(C)C(=O)O[C@@H]4O[C@H](CO)[C@@H](O)[C@H](O)[C@H]4O)[C@@H]2CC[C@]1(O[C@@H]1O[C@H](CO)[C@@H](O)[C@H](O[C@@H]2O[C@H](CO)[C@@H](O)[C@H](O)[C@H]2O)[C@H]1O[C@@H]1O[C@H](CO)[C@@H](O)[C@H](O)[C@H]1O)C3` [rebaudioside A] has a More Sweet Sample [1, 13] of 5% sucrose +, a R-index [1, 13] of 1.313 and a More Sweet Sample [1, 14] of 5% sucrose +. It also gave a R-index [1, 14] of 22.625, a More Sweet Sample [1, 15] of 7% sucrose and a R-index [1, 15] of 89.000. The “Isosweet sucrose concentration by interpolation” value ([1]; 30 ppm in 5% sucrose) was 6.5 % sucrose, the “Sucrose equivalence in enhancement” value ([1]; 30 ppm on top of 5% sucrose) was 0.5 % sucrose equivalence and the Iso-intense sucrose concentration ([2]; 30 ppm, iso-intensity study) was 1 % sucrose.
